Experimental data from patent publication US12209087B2, “AKT1 modulators” (Alterome Therapeutics, Inc., priority 2022, dated 2025).

Target: T1, full length AKT E17K (Homo sapiens, UniProt P31749, E17K)
T1 construct: host or cells: HEK-293 (ATCC CRL-1573)
Experiment: NanoBRET Target Engagement (TE) Assay
Format: cell-based
Settings: competitive tracer displacement in living cells, read-out: AKT1 E17K IC50
How it was run: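 Compound and tracer incubated 2 h before luminescence at donor 450 nm and acceptor 600 nm, with extracellular signal inhibited. EC50 by sigmoidal variable-slope regression.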

T1 sequence (P31749 whole entry E17K): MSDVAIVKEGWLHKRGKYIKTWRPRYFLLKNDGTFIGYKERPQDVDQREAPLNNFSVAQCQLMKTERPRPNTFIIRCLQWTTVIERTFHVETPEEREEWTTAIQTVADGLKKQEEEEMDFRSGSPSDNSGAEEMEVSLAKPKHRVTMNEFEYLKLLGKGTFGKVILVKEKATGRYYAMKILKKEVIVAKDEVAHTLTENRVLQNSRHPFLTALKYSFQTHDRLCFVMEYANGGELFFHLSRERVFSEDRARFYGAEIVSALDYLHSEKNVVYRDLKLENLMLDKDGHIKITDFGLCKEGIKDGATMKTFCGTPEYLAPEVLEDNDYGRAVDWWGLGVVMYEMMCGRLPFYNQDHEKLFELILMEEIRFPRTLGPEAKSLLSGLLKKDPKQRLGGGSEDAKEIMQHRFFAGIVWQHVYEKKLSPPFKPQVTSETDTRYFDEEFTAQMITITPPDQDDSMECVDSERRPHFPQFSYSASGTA

Row | Structure (SMILES) | IC50 [nM]
1 | N#Cc1nccc(NC2CCN(Cc3ccc(-n4c(-c5cccnc5N)nc5ccc(-c6ccc(=O)[nH]c6)nc54)cc3)CC2)n1 [Example 266, 4-((1-(4-(2-(2-Aminopyridin-3-yl)-5-(6-oxo-1,6-dihydropyridin-3-yl)-3H-imidazo[4,5-b]pyridin-3-yl)benzyl)piperidin-4-yl)amino)pyrimidine-2-carbonitrile] | 60 to 600
2 | N#Cc1nccc(NC2CCN(Cc3ccc(-n4c(-c5cccnc5N)nc5ccc(-c6cccc(=O)[nH]6)nc54)cc3)CC2)n1 [Example 267, 4-((1-(4-(2-(2-Aminopyridin-3-yl)-5-(6-oxo-1,6-dihydropyridin-2-yl)-3H-imidazo[4,5-b]pyridin-3-yl)benzyl)piperidin-4-yl)amino)pyrimidine-2-carbonitrile] | < 15
3 | N#Cc1ncnc(N2CCC3(CC2)CN(Cc2ccc(-n4c(-c5cccnc5N)nc5ccc(-c6ccccc6)nc54)cc2)C3)n1 [Example 268, 4-(2-(4-(2-(2-Aminopyridin-3-yl)-5-phenyl-3H-imidazo[4,5-b]pyridin-3-yl)benzyl)-2,7-diazaspiro[3.5]nonan-7-yl)-1,3,5-triazine-2-carbonitrile] | < 15
4 | N#Cc1ncnc(N2CC[C@]3(CCN(Cc4ccc(-n5c(-c6cccnc6N)nc6ccc(-c7ccccc7)nc65)cc4)C3)C2)n1 [Example 269, (S)-4-(7-(4-(2-(2-Aminopyridin-3-yl)-5-phenyl-3H-imidazo[4,5-b]pyridin-3-yl)benzyl)-2,7-diazaspiro[4.4]nonan-2-yl)-1,3,5-triazine-2-carbonitrile] | < 15
5 | N#Cc1ncnc(N2C3CCC2CN(Cc2ccc(-n4c(-c5cccnc5N)nc5ccc(-c6ccccc6)nc54)cc2)C3)n1 [Example 270, 4-(3-(4-(2-(2-Aminopyridin-3-yl)-5-phenyl-3H-imidazo[4,5-b]pyridin-3-yl)benzyl)-3,8-diazabicyclo[3.2.1]octan-8-yl)-1,3,5-triazine-2-carbonitrile] | 60 to 600
6 | N#Cc1ncnc(N2CC3CCC(C2)N3Cc2ccc(-n3c(-c4cccnc4N)nc4ccc(-c5ccccc5)nc43)cc2)n1 [Example 271, 4-(8-(4-(2-(2-Aminopyridin-3-yl)-5-phenyl-3H-imidazo[4,5-b]pyridin-3-yl)benzyl)-3,8-diazabicyclo[3.2.1]octan-3-yl)-1,3,5-triazine-2-carbonitrile] | 15 to 60
7 | N#Cc1ncnc(N2C[C@H]3C[C@@H]2CN3Cc2ccc(-n3c(-c4cccnc4N)nc4ccc(-c5ccccc5)nc43)cc2)n1 [Example 272, 4-((1R,4R)-5-(4-(2-(2-aminopyridin-3-yl)-5-phenyl-3H-imidazo[4,5-b]pyridin-3-yl)benzyl)-2,5-diazabicyclo[2.2.1]heptan-2-yl)-1,3,5-triazine-2-carbonitrile] | < 15
8 | C[C@@H]1CN(Cc2ccc(-n3c(-c4cccnc4N)nc4ccc(-c5ccccc5)nc43)cc2)CCN1c1ncnc(C#N)n1 [Example 273, (R)-4-(4-(4-(2-(2-Aminopyridin-3-yl)-5-phenyl-3H-imidazo[4,5-b]pyridin-3-yl)benzyl)-2-methylpiperazin-1-yl)-1,3,5-triazine-2-carbonitrile] | < 15
9 | C[C@H]1CN(Cc2ccc(-n3c(-c4cccnc4N)nc4ccc(-c5ccccc5)nc43)cc2)CCN1c1ncnc(C#N)n1 [Example 274, (S)-4-(4-(4-(2-(2-Aminopyridin-3-yl)-5-phenyl-3H-imidazo[4,5-b]pyridin-3-yl)benzyl)-2-methylpiperazin-1-yl)-1,3,5-triazine-2-carbonitrile] | 15 to 60
10 | C[C@H]1CN(Cc2ccc(-n3c(-c4cccnc4N)nc4ccc(-c5ccccc5)nc43)cc2)C[C@H](C)N1c1ncnc(C#N)n1 [Example 275, 4-((2S,6S)-4-(4-(2-(2-Aminopyridin-3-yl)-5-phenyl-3H-imidazo[4,5-b]pyridin-3-yl)benzyl)-2,6-dimethylpiperazin-1-yl)-1,3,5-triazine-2-carbonitrile] | < 15
11 | N#Cc1ncnc(N2CCN(Cc3ccc(-n4c(-c5cccnc5N)nc5ccc(-c6ccccc6)nc54)cc3)CC23CC3)n1 [Example 276, 4-(7-(4-(2-(2-aminopyridin-3-yl)-5-phenyl-3H-imidazo[4,5-b]pyridin-3-yl)benzyl)-4,7-diazaspiro[2.5]octan-4-yl)-1,3,5-triazine-2-carbonitrile] | < 15
12 | C[C@@H]1CN(Cc2ccc(-n3c(-c4cccnc4N)nc4ccc(-c5ccccc5)nc43)cc2)C[C@H](C)N1c1ncnc(C#N)n1 [Example 277, 4-((2R,6S)-4-(4-(2-(2-aminopyridin-3-yl)-5-phenyl-3H-imidazo[4,5-b]pyridin-3-yl)benzyl)-2,6-dimethylpiperazin-1-yl)-1,3,5-triazine-2-carbonitrile] | 15 to 60
13 | N#Cc1ncnc(NC2CCCN(Cc3ccc(-n4c(-c5cccnc5N)nc5ccc(-c6ccccc6)nc54)cc3)CC2)n1 (stereo not shown) [Example 278, 4-((1-(4-(2-(2-Aminopyridin-3-yl)-5-phenyl-3H-imidazo[4,5-b]pyridin-3-yl)benzyl)azepan-4-yl)amino)-1,3,5-triazine-2-carbonitrile] | 15 to 60
14 | N#Cc1ncnc(NC2COCCN(Cc3ccc(-n4c(-c5cccnc5N)nc5ccc(-c6ccccc6)nc54)cc3)C2)n1 (stereo not shown) [Example 279, 4-((4-(4-(2-(2-Aminopyridin-3-yl)-5-phenyl-3H-imidazo[4,5-b]pyridin-3-yl)benzyl)-1,4-oxazepan-6-yl)amino)-1,3,5-triazine-2-carbonitrile] | < 15
15 | Cc1ccc2nc(-c3cccnc3N)n(-c3ccc(CN4CCC(Nc5ccnc(C#N)n5)CC4)cc3)c2n1 [Example 280, 4-((1-(4-(2-(2-Aminopyridin-3-yl)-5-methyl-3H-imidazo[4,5-b]pyridin-3-yl)benzyl)piperidin-4-yl)amino)pyrimidine-2-carbonitrile] | < 15
16 | N#Cc1nccc(N2CCN(Cc3ccc(-n4c(-c5cccnc5N)nc5ccc(-c6ccccc6F)nc54)cc3)CC2)n1 [Example 281, 4-(4-(4-(2-(2-Aminopyridin-3-yl)-5-(2-fluorophenyl)-3H-imidazo[4,5-b]pyridin-3-yl)benzyl)piperazin-1-yl)pyrimidine-2-carbonitrile] | < 15
17 | N#Cc1ccnc(N2CCN(Cc3ccc(-n4c(-c5cccnc5N)nc5ccc(-c6ccccc6F)nc54)cc3)CC2)n1 [Example 282, 2-(4-(4-(2-(2-Aminopyridin-3-yl)-5-(2-fluorophenyl)-3H-imidazo[4,5-b]pyridin-3-yl)benzyl)piperazin-1-yl)pyrimidine-4-carbonitrile] | 15 to 60
18 | N#Cc1ccnc(N2CCN(Cc3ccc(-n4c(-c5cccnc5N)nc5ccc(N6CCCNC(=O)C6)nc54)cc3)CC2)n1 [Example 283, 2-(4-(4-(2-(2-Aminopyridin-3-yl)-5-(3-oxo-1,4-diazepan-1-yl)-3H-imidazo[4,5-b]pyridin-3-yl)benzyl)piperazin-1-yl)pyrimidine-4-carbonitrile] | 15 to 60
19 | N#Cc1cc(N2CCN(Cc3ccc(-n4c(-c5cccnc5N)nc5ccc(N6CCCNC(=O)C6)nc54)cc3)CC2)ncn1 [Example 284, 6-(4-(4-(2-(2-Aminopyridin-3-yl)-5-(3-oxo-1,4-diazepan-1-yl)-3H-imidazo[4,5-b]pyridin-3-yl)benzyl)piperazin-1-yl)pyrimidine-4-carbonitrile] | 60 to 600
